From ChEMBL document CHEMBL1201862, “PubChem BioAssay data set” (2004)
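Five compound concentrations were applied to cells in 96-well plates for 48 hours; endpoints were derived by simple linear interpolation of the resulting dose-response curve. GI50: concentration for 50% inhibition of growth.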 Activity calls are given as the source filed them. No stated cut-off is given here; in the data, active = GI50 up to about 1.1 µM and inactive = higher.

Key:
Assay in all cases: NCI-60 cell line screen, 48 h
[1] = test system: ACHN
[2] = test system: CCRF-CEM
[3] = test system: COLO 205
[4] = test system: HCT-15
[5] = test system: HT-29
[6] = test system: K562
[7] = test system: MOLT-4
[8] = test system: Malme-3M
[9] = test system: NCI-H23
[10] = test system: OVCAR-8
[11] = test system: RPMI-8226
[12] = test system: SF-268
[13] = test system: SK-MEL-28
[14] = test system: SN12C
[15] = test system: SNB-19
[16] = test system: U-251
[17] = test system: UO-31
[18] = test system: A498
[19] = test system: HOP-62
[20] = test system: NCI/ADR-RES

SMILES | GI50 [1] | GI50 [2] | GI50 [3] | GI50 [4] [µM] | GI50 [5] | GI50 [6] | GI50 [7] | GI50 [8] | GI50 [9] | GI50 [10] | GI50 [11] | GI50 [12] | GI50 [13] | GI50 [14] | GI50 [15] | GI50 [16] | GI50 [17] | GI50 [18] | GI50 [19] | GI50 [20]
C[C@]12CCC3[C@@H](C[C@H]4OC(=O)[C@@]35CCC(=O)C=C45)C1CCC2=O (stereo partly drawn) | > 100 µM (inactive) | > 100 µM (inactive) | > 100 µM (inactive) | > 100 | > 100 µM (inactive) | > 100 µM (inactive) | > 100 µM (inactive) | > 100 µM (inactive) | > 100 µM (inactive) | > 100 µM (inactive) | > 100 µM (inactive) | > 100 µM (inactive) | > 100 µM (inactive) | > 100 µM (inactive) | > 100 µM (inactive) | > 100 µM (inactive) | > 100 µM (inactive) | – | – | –
Nc1nc(Cl)cc(NCCCCO)n1 | > 100 µM (inactive) | > 100 µM (inactive) | > 100 µM (inactive) | > 100 | > 100 µM (inactive) | > 100 µM (inactive) | > 100 µM (inactive) | > 100 µM (inactive) | > 100 µM (inactive) | > 100 µM (inactive) | > 100 µM (inactive) | > 100 µM (inactive) | > 100 µM (inactive) | > 100 µM (inactive) | > 100 µM (inactive) | > 100 µM (inactive) | > 100 µM (inactive) | > 100 µM (inactive) | > 10 µM (inactive) | –
COn1oc(=O)c2ccccc21 | > 100 µM (inactive) | > 100 µM (inactive) | > 100 µM (inactive) | > 100 | > 100 µM (inactive) | > 100 µM (inactive) | > 100 µM (inactive) | 91.2 µM (inactive) | > 100 µM (inactive) | > 100 µM (inactive) | > 100 µM (inactive) | > 100 µM (inactive) | > 100 µM (inactive) | > 100 µM (inactive) | > 100 µM (inactive) | > 100 µM (inactive) | > 100 µM (inactive) | > 100 µM (inactive) | > 100 µM (inactive) | > 100 µM (inactive)
COC(C[C@H]1CCCC[C@]1(O)/C(=C\CO[Si](C(C)C)(C(C)C)C(C)C)Sc1ccccc1)OC | > 100 µM (inactive) | 27 µM (inactive) | 20.9 µM (inactive) | 21.8 | 46.1 µM (inactive) | 31.3 µM (inactive) | 17.3 µM (inactive) | 22.5 µM (inactive) | 25.8 µM (inactive) | 49.8 µM (inactive) | 15.5 µM (inactive) | 28.3 µM (inactive) | 50.6 µM (inactive) | 39.5 µM (inactive) | 26.7 µM (inactive) | 22.1 µM (inactive) | 42.2 µM (inactive) | > 100 µM (inactive) | 50 µM (inactive) | 87.3 µM (inactive)
CCOC(=O)CC1(c2cccc3ccccc23)OC(=O)c2ccccc21 (stereo not drawn) | 30.3 µM (inactive) | 43.1 µM (inactive) | 30.4 µM (inactive) | 35.5 | 49.8 µM (inactive) | 37.9 µM (inactive) | 25.4 µM (inactive) | 27.5 µM (inactive) | 20.3 µM (inactive) | 45.5 µM (inactive) | 23.7 µM (inactive) | 32.7 µM (inactive) | 39.9 µM (inactive) | 43.1 µM (inactive) | 50.9 µM (inactive) | 68.4 µM (inactive) | 23.9 µM (inactive) | 23.6 µM (inactive) | – | –
O=S(O)CCCCCSSc1ccccc1 | 85.7 µM (inactive) | 4.5 µM (inactive) | – | – | 84.9 µM (inactive) | 15.3 µM (inactive) | 8.13 µM (inactive) | 10 µM (inactive) | 52.5 µM (inactive) | – | 18.5 µM (inactive) | 15.8 µM (inactive) | 61.1 µM (inactive) | 27.8 µM (inactive) | > 100 µM (inactive) | 21.3 µM (inactive) | 31.6 µM (inactive) | 48.5 µM (inactive) | > 100 µM (inactive) | –
Nc1nc(SCCc2ccccc2)nc2nc3c(c(-c4ccccc4)c12)CCCC3 | > 100 µM (inactive) | > 100 µM (inactive) | > 100 µM (inactive) | > 100 | > 100 µM (inactive) | > 100 µM (inactive) | > 100 µM (inactive) | > 100 µM (inactive) | > 100 µM (inactive) | > 100 µM (inactive) | > 100 µM (inactive) | > 100 µM (inactive) | > 100 µM (inactive) | > 100 µM (inactive) | > 100 µM (inactive) | > 100 µM (inactive) | > 100 µM (inactive) | – | 66.1 µM (inactive) | > 100 µM (inactive)
Oc1cc(-c2ccc(Cl)cc2)nc2ncccc12 | 79.4 µM (inactive) | 41.7 µM (inactive) | 21.7 µM (inactive) | 27.4 | 34.9 µM (inactive) | 11.5 µM (inactive) | 40.2 µM (inactive) | 28.6 µM (inactive) | 86.5 µM (inactive) | 61.9 µM (inactive) | 24.3 µM (inactive) | 53.2 µM (inactive) | 57.1 µM (inactive) | 75.9 µM (inactive) | 64.1 µM (inactive) | 36.6 µM (inactive) | 33 µM (inactive) | 68.1 µM (inactive) | 55 µM (inactive) | 36 µM (inactive)
C=C1C(O)C2(O)OCC34C(CC5C(C)=CC(=O)C(O)C5(C)C23)OC(=O)C(OC(=O)C/C=C/CCCCCCCC)C14 (stereo not drawn) | – | 0.02 µM (active) | 0.0241 µM (active) | 0.0241 | 0.0226 µM (active) | 0.02 µM (active) | 0.02 µM (active) | 0.02 µM (active) | 0.02 µM (active) | 0.02 µM (active) | 0.02 µM (active) | 0.0209 µM (active) | 0.02 µM (active) | 0.0275 µM (active) | 0.0212 µM (active) | 0.02 µM (active) | 0.0452 µM (active) | 0.0254 µM (active) | 0.0233 µM (active) | 0.162 µM (active)
O=C(NC(Cc1ccc(I)cc1)C(=O)O)c1cccc(Br)c1 (stereo not drawn) | – | 69.2 µM (inactive) | > 100 µM (inactive) | > 100 | > 100 µM (inactive) | 48.6 µM (inactive) | 33.7 µM (inactive) | 70.1 µM (inactive) | > 100 µM (inactive) | > 100 µM (inactive) | 47.8 µM (inactive) | > 100 µM (inactive) | 49.8 µM (inactive) | > 100 µM (inactive) | 99.1 µM (inactive) | 78.3 µM (inactive) | > 100 µM (inactive) | > 100 µM (inactive) | 67.3 µM (inactive) | 99.5 µM (inactive)
Cc1cc([N+](=O)[O-])ccc1/N=N/C(=O)NNc1ccc([N+](=O)[O-])cc1C | 15.8 µM (inactive) | 20.1 µM (inactive) | – | 19.1 | 27 µM (inactive) | 19.5 µM (inactive) | 15.5 µM (inactive) | 17.3 µM (inactive) | 17.3 µM (inactive) | 14.7 µM (inactive) | 21.3 µM (inactive) | 20 µM (inactive) | 16.4 µM (inactive) | 16.7 µM (inactive) | 15.6 µM (inactive) | 17.5 µM (inactive) | 11.8 µM (inactive) | 13.6 µM (inactive) | 13.7 µM (inactive) | –
CCC1NC(/N=N/c2ccc([N+](=O)[O-])cc2)(P(=O)(OC(C)C)OC(C)C)OC1=O (stereo not drawn) | > 100 µM (inactive) | > 100 µM (inactive) | > 100 µM (inactive) | – | > 100 µM (inactive) | > 100 µM (inactive) | > 100 µM (inactive) | > 100 µM (inactive) | > 100 µM (inactive) | > 100 µM (inactive) | > 100 µM (inactive) | > 100 µM (inactive) | > 100 µM (inactive) | > 100 µM (inactive) | > 100 µM (inactive) | > 100 µM (inactive) | > 100 µM (inactive) | > 100 µM (inactive) | > 100 µM (inactive) | –
